Our source for the solubility (mole fraction) values is BigSolDB 2.1.

Broadly, the solubility (mole fraction) is the moles of solute divided by all moles in the saturated solution. For the compound `O=C(O)/C=C/c1ccc(O)cc1`, the solubility (mole fraction) (in ethanol, 283.15 K) was 0.0358; the solubility (mole fraction) (in ethanol, 288.15 K) stood at 0.0381; the solubility (mole fraction) (in ethanol, 293.15 K) turned out to be 0.0414; the solubility (mole fraction) (in ethanol, 298.15 K) is 0.0461; the solubility (mole fraction) (in ethanol, 303.15 K) turned out to be 0.0514; the solubility (mole fraction) (in ethanol, 308.15 K) was determined as 0.0559. The compound further gave a solubility (mole fraction) (in ethanol, 313.15 K) of 0.0621; a solubility (mole fraction) (in ethanol, 318.15 K) of 0.0675; a solubility (mole fraction) (in ethanol, 323.15 K) of 0.0735; a solubility (mole fraction) (in ethyl acetate, 283.15 K) of 0.00928; a solubility (mole fraction) (in ethyl acetate, 288.15 K) of 0.0101; a solubility (mole fraction) (in ethyl acetate, 293.15 K) of 0.0114. The solubility (mole fraction) runs as follows: (in ethyl acetate, 298.15 K) 0.0129; (in ethyl acetate, 303.15 K) 0.0145; (in ethyl acetate, 308.15 K) 0.0164; (in ethyl acetate, 313.15 K) 0.0185; (in ethyl acetate, 318.15 K) 0.0208; (in ethyl acetate, 323.15 K) 0.0232.
Take `COc1cc(C=O)ccc1O`: the solubility (mole fraction) is 0.0673 (in ethanol, 283.15 K); 0.0698 (in ethanol, 288.15 K); 0.0734 (in ethanol, 293.15 K); 0.0785 (in ethanol, 298.15 K); 0.082 (in ethanol, 303.15 K); 0.0854 (in ethanol, 308.15 K). In addition, the solubility (mole fraction) turned out to be 0.0902 (in ethanol, 313.15 K); 0.0938 (in ethanol, 318.15 K); 0.0985 (in ethanol, 323.15 K); 0.109 (in ethyl acetate, 283.15 K); 0.115 (in ethyl acetate, 288.15 K); 0.118 (in ethyl acetate, 293.15 K). Further, the solubility (mole fraction) is, setting by setting: (in ethyl acetate, 298.15 K) 0.125; (in ethyl acetate, 303.15 K) 0.128; (in ethyl acetate, 308.15 K) 0.133; (in ethyl acetate, 313.15 K) 0.137; (in ethyl acetate, 318.15 K) 0.142; (in ethyl acetate, 323.15 K) 0.15.
